{"source": "patent US4029547A", "about": "(priority 1974, dated 1977)", "key": {"aminopeptidase B": {"molecular_target": "T1, aminopeptidase B (Rattus norvegicus, UniProt O09175)", "T1 construct": "aminopeptidase B of rat liver; from tissue; host or cells: rat liver, enzyme prepared by Sephadex 100 chromatography", "T1 sequence (O09175 1-650)": "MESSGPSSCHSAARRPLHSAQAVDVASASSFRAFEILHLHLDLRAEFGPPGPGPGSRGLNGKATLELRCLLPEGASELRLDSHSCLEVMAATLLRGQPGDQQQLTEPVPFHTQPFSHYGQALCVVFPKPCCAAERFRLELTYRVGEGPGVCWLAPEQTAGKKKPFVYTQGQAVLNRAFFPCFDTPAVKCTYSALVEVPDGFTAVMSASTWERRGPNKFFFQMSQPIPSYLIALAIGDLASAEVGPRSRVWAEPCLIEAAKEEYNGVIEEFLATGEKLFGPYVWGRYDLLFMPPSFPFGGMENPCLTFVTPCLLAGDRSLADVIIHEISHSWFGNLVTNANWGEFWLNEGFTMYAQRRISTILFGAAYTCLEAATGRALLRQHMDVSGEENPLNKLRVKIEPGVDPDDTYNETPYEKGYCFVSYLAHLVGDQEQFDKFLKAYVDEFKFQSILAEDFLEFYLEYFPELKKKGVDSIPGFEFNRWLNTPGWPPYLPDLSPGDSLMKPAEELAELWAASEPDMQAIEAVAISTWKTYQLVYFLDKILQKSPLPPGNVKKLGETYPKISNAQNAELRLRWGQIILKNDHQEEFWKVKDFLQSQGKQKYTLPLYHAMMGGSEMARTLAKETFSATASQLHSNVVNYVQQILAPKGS", "experiment": "Inhibition of aminopeptidase B (arginine β-naphthylamide hydrolysis)", "assay_type": "biochemical", "settings": "for 50% inhibition dose (ID50) of aminopeptidase B: amount added to the test solution", "method": "To the mixture of 0.3 ml of 1 mM arginine β-naphthylamide and 1.0 ml of 0.1 M Tris hydrochloride buffer (pH 7.0), 0.7 ml of distilled water with or without a test material is added and warmed at 37° C.) for 3 minutes. The reaction is started by addition of 0.2 ml of aminopeptidase B solution which is prepared by Sephadex 100 chromatography as described by Hopusu et al. After 30 minutes at 37° C., 0.6 ml of 1.0 M acetate buffer (pH 4.2) containing diazonium salt of o-aminoazotoluene at 1.0 mg/ml and Tween 20 at 10% is added. […] The inhibition percent is calculated as follows: (b-a)/b × 100."}, "leucine aminopeptidase": {"molecular_target": "T2, leucine aminopeptidase (Sus scrofa, UniProt P28839)", "T2 construct": "leucine aminopeptidase of swine kidney; from tissue; host or cells: swine kidney", "T2 sequence (P28839 33-519 limits assumed)": "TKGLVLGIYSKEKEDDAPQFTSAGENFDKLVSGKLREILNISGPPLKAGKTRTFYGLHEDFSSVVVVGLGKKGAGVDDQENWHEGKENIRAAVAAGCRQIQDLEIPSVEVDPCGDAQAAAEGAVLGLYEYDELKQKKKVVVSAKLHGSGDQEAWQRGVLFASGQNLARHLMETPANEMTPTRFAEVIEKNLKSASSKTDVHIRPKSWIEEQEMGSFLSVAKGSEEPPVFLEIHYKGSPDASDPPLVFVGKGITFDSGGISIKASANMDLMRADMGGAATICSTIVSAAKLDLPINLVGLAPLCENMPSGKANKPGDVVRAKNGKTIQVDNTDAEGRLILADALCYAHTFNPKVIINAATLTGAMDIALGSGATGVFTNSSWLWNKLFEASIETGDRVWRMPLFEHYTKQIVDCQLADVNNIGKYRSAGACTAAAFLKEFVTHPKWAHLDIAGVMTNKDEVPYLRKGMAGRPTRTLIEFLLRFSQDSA", "experiment": "Inhibition of leucine aminopeptidase (L-leucine naphthylamide hydrolysis)", "assay_type": "biochemical, swine", "settings": "substrate L-leucine-β-naphthylamide", "method": "The activity was determined by the following method: to 0.25 ml. of 2 mM L-leucine-3-naphthylamide (Tokyo Chem. Indust. Co., Ltd., Japan) was added 0.5 ml. of 0.1 M Tris-HCl buffer at pH 7.0 and 0.2 ml. of distilled water with or without an inhibitor in a series of test tubes in a 37° C. bath. After 3 minutes, 0.05 ml. of enzyme solution was added and mixed well."}, "[1]": {"system": "aminopeptidase A of human serum", "experiment": "Inhibition of aminopeptidase A", "assay_type": "biochemical"}, "trypsin": {"system": "trypsin", "experiment": "Inhibition of trypsin", "assay_type": "biochemical"}, "chymotrypsin": {"system": "chymotrypsin", "experiment": "Inhibition of chymotrypsin", "assay_type": "biochemical"}, "elastase": {"system": "elastase", "experiment": "Inhibition of elastase", "assay_type": "biochemical"}, "papain": {"molecular_target": "T3, papain (Carica papaya, UniProt P00784)", "T3 sequence (P00784 134-345)": "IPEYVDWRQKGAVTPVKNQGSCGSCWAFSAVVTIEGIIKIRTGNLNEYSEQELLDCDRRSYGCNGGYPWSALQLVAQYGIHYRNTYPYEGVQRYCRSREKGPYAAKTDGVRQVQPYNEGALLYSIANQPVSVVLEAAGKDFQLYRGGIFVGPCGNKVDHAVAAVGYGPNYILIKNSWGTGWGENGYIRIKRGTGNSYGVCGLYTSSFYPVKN", "experiment": "Inhibition of papain", "assay_type": "biochemical"}, "pepsin": {"system": "pepsin", "experiment": "Inhibition of pepsin", "assay_type": "biochemical"}, "thermolysin": {"molecular_target": "T4, thermolysin (Bacillus thermoproteolyticus, UniProt P00800)", "T4 sequence (P00800 233-548)": "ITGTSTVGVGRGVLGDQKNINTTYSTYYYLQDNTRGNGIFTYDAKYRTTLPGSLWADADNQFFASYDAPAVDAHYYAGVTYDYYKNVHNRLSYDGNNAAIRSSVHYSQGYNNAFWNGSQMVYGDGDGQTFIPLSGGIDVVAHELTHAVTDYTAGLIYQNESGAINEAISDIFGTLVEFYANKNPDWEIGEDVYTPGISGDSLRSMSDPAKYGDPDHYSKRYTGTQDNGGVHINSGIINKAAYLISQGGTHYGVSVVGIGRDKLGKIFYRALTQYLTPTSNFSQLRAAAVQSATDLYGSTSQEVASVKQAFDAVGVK", "experiment": "Inhibition of thermolysin", "assay_type": "biochemical"}, "bacteria": {"system": "bacteria", "experiment": "Antibacterial activity", "assay_type": "cell-based"}, "fungi": {"system": "fungi", "experiment": "Antifungal activity", "assay_type": "cell-based", "settings": "at 100 μg/ml"}, "[2]": {"experiment": "Toxicity after intraperitoneal injection", "assay_type": "in vivo, mouse"}, "[3]": {"system": "Yoshida rat sarcoma cells", "experiment": "Increase of bleomycin activity in tissue culture", "assay_type": "cell-based", "settings": "bestatin 6.25 μg/ml in tissue culture medium"}, "[4]": {"system": "methylcholanthrene-induced squamous cell carcinoma", "experiment": "Increase of bleomycin effect on carcinoma in vivo", "set-up": "species or system rat", "settings": "simultaneous subcutaneous daily injection, 5 mg/kg bestatin with 5 mg/kg bleomycin, rats"}, "Stability to pH and heat": {"experiment": "Stability to pH and heat", "assay_type": "physicochemical", "settings": "culture filtrate containing bestatin, pH 2.0 or pH 9.0, 60° C., 30 minutes"}, "Solubility in solvents": {"experiment": "Solubility in solvents", "assay_type": "physicochemical"}, "bleomycin hydrolase": {"system": "bleomycin hydrolase", "experiment": "Inhibition of bleomycin hydrolase", "assay_type": "biochemical"}, "[5]": {"system": "mammalian cells including cancer cells", "experiment": "Inhibition of growth of mammalian cells", "assay_type": "cell-based"}}, "note": "Where “and” joins values, the source holds several entries; their conditions need not be identical. Equal values may be shown once. Entries after “also recorded” stand apart in the source; their conditions may differ. Read-outs that look alike come from different tables or passages of the source."}
{"smiles": "CC(C)C[C@H](NC(=O)[C@@H](O)[C@H](N)Cc1ccccc1)C(=O)O", "note": "[bestatin, [(2S,3R)-3-amino-2-hydroxy-4-phenylbutanoyl]-L-leucine]", "values": [{"measurement": "IC50", "setting": "aminopeptidase B; aminopeptidase B of rat liver", "value": 0.178, "unit": "µM"}, {"measurement": "50% inhibition dose (ID50) of aminopeptidase B", "setting": "aminopeptidase B", "value": "0.1 µg and 0.10 µg"}, {"measurement": "mode of inhibition", "setting": "aminopeptidase B; substrate L-arginine-β-naphthylamide", "value": "competitive with the substrate"}, {"measurement": "mode of inhibition", "setting": "leucine aminopeptidase", "value": "competitive with the substrate"}, {"measurement": "inhibition of aminopeptidase A", "setting": "[1]", "value": "did not show any inhibition"}, {"measurement": "inhibition of aminopeptidase A", "setting": "[1]; at 100 μg/ml, aminopeptidase A of human serum", "value": 26.4, "unit": "%"}, {"measurement": "inhibition of trypsin", "setting": "trypsin", "value": "did not show any inhibition"}, {"measurement": "inhibition of chymotrypsin", "setting": "chymotrypsin", "value": "did not show any inhibition"}, {"measurement": "inhibition of elastase", "setting": "elastase", "value": "did not show any inhibition"}, {"measurement": "inhibition of papain", "setting": "papain", "value": "did not show any inhibition"}, {"measurement": "inhibition of pepsin", "setting": "pepsin", "value": "did not show any inhibition"}, {"measurement": "inhibition of thermolysin", "setting": "thermolysin", "value": "did not show any inhibition"}, {"measurement": "antibacterial activity", "setting": "bacteria; at 100 μg/ml", "value": "no antibacterial"}, {"measurement": "antibacterial activity", "setting": "bacteria; no concentration given", "value": "substantially no antibacterial activity"}, {"measurement": "antifungal activity", "setting": "fungi", "value": "no antifungal"}, {"measurement": "toxicity", "setting": "[2]; intraperitoneal injection of 295 mg/kg, mouse", "value": "no toxicity"}, {"measurement": "death", "setting": "[2]; intraperitoneal injection of 300 mg/kg, mice", "value": "no death"}, {"measurement": "increase of bleomycin activity in inhibiting Yoshida rat sarcoma cells", "setting": "[3]", "value": "4- 8 times"}, {"measurement": "increase of bleomycin effect on squamous cell carcinoma", "setting": "[4]", "value": 4, "unit": "times"}, {"measurement": "stability (activity after treatment)", "setting": "Stability to pH and heat", "value": "No decrease of the activity"}, {"measurement": "solubility", "setting": "Solubility in solvents; ethyl acetate, butyl acetate, ethyl ether, hexane, petroleum ether, benzene, chloroform", "value": "practically insoluble; also recorded: hardly soluble"}, {"measurement": "solubility", "setting": "Solubility in solvents; propanol and butanol", "value": "slightly soluble; also recorded: less soluble"}, {"measurement": "solubility", "setting": "Solubility in solvents; water, acetic acid, pyridine, dimethylsulfoxide, methanol, ethanol", "value": "soluble"}, {"measurement": "inhibition of bleomycin hydrolase", "setting": "bleomycin hydrolase", "value": "strong inhibition"}, {"measurement": "inhibition of growth of mammalian cells", "setting": "[5]", "value": "weak inhibition"}]}
{"smiles": "COC(=O)[C@H](CC(C)C)NC(=O)[C@@H](O)[C@@H](Cc1ccccc1)NC(C)=O", "note": "[N-acetyl-bestatin methyl ester]", "values": [{"measurement": "50% inhibition dose (ID50) of aminopeptidase B", "setting": "aminopeptidase B", "value": 8, "unit": "µg"}]}
{"smiles": "COC(=O)[C@H](CC(C)C)NC(=O)[C@@H](O)[C@H](N)Cc1ccccc1", "note": "[methyl ester of bestatin]", "values": [{"measurement": "50% inhibition dose (ID50) of aminopeptidase B", "setting": "aminopeptidase B", "value": 8.4, "unit": "µg"}]}
